Values of other authors, collected in patent publication US12285420B2 (ACASTI PHARMA U.S., INC., priority 2018, dated 2025).

Tests used:
[1] = nimodipine-treated subarachnoid hemorrhage (SAH) patients
[2] = man, oral administration

Structure (SMILES): COCCOC(=O)C1=C(C)NC(C)=C(C(=O)OC(C)C)C1c1cccc([N+](=O)[O-])c1 (centres unmarked) [nimodipine, isopropyl 2-methoxyethyl 1,4-dihydro-2,6-dimethyl-4-(m-nitrophenyl)-3,5-pyridinedicarboxylate]
- Concentration of nimodipine detected in the cerebrospinal fluid [1]: ≤ 12.5 ng/mL
- Half-life equivalent to earlier elimination rates [2]: 1 to 2 h
